Data on 25 compounds can be found in patent US4299970A, “Oxy-alkylamino carboxylic esters” (Beecham Group Limited, priority 1974, dated 1981).

SMILES strings stand for the structures. ≈ marks a conversion by molar mass, not a printed value.

Assay [1] has as its system femoral artery of the hind limb. Nature of the assay: vasodilator activity in femoral artery of the hind limb (vascular resistance). The format is in vivo, beagle dog. As to conditions: dose range of 0.01-1 mg/kg, intra-arterially. The procedure:
(§1) b. The vasodilator activity of the compounds was determined in the femoral artery of the hind limb of the anaesthetised beagle dog. The method used was similar to that described by J. Nakano and J. R. McCurdy, (1967), J. Pharmac. Exp. Ther., 156, 538.
The compounds were administered into the iliac artery and the effects on both flow and pressure in the hind limb were recorded. Changes in vascular resistance (R) were calculated from the following expression: [formula]

Assay [2] relates to total peripheral resistance. Nature of the assay: total peripheral resistance, intravenous. It is filed as in vivo, beagle dog. The following applies: dose range of 0.01-10 mg/kg, intra-venously. Here is the method:
as §1
In other experiments the compounds were administered into the left femoral vein and the right femoral arterial pressure and cardiac output were monitored. From these experiments, total peripheral resistance (TPR) was calculated from the expression: [formula]

A further assay has as its system antifertility activity. Nature of the assay: antifertility activity in female mice. The following applies: 50-100 mg/kg, s.c.; 5 days pre-coitally and 10 days post-coitally. The format is in vivo. Here is the method: Antifertility activity was determined by subcutaneous dosing of female mice for 5 days pre-coitally and 10 days post-coitally. Three female mice per group were used and these were mated with males of proven fertility and mating confirmed by examination for copulation plugs.

For assay [3], the system named is human platelet aggregation induced by collagen. The assay can be described thus: inhibition of human platelet aggregation induced in vitro by collagen. It is filed as cell-based. As to conditions: 10^-4 M, collagen, platelet rich plasma, 37° C. Here is the method: b. The compounds were examined for their ability to inhibit human platelet aggregation induced, in vitro, either by adenosine diphosphate (ADP) or collagen. The compounds were added in saline or dimethylformamide to platelet rich plasma at 37° C. to give a final concentration of 10^-4 M. After 3 minutes the platelets were challenged with ADP or collagen. The aggregation response was then recorded relative to the control.

Assay [4] has as its system pentagastrin-stimulated gastric acid secretion. The assay can be described thus: inhibition of pentagastrin-stimulated gastric acid secretion, anaesthetised perfused rat stomach (Ghosh and Schild preparation). The following applies: intravenous. The format is in vivo. From the text:
a. The compounds were examined for their ability to inhibit pentagastrin-stimulated gastric acid secretion in the anaesthetised, perfused rat stomach preparation (Ghosh and Schild preparation).
M. N. Ghosh and H. O. Schild, (1958), Brit. J. Pharmacol, 13, 54.
The compounds were given intravenously.

For assay [5], the system named is guinea pig platelet aggregation induced by ADP. Nature of the assay: inhibition of guinea pig platelet aggregation induced in vitro by ADP. The format is cell-based. The following applies: Cavia porcellus, ADP 5.45×10^-7 M, platelet rich plasma, 37° C. The procedure:
a. The compounds were examined for their ability to inhibit guinea pig platelet aggregation induced, in vitro, by 5.45×10^-7 M adenosine diphosphate (ADP).
The method consisted of diluting the compound immediately before use from a 10 mg/ml solution in ethanol to a 1 mg/ml solution with saline and then adding the appropriate volume to 0.5 ml of platelet rich plasma. The mixture was stirred at 37° C. for 1 minute before 25 μl of an ADP solution was added to give a final ADP concentration of 5.45×10^-7 M. The aggregation response was then recorded relative to the control.

The test system of assay [6] is gerbil colon; contraction to prostaglandin F2α. The assay can be described thus: prostaglandin antagonist activity on the isolated perfused gerbil colon (contraction to prostaglandin F2α). The following applies: Meriones unguiculatus; reduction of contraction to prostaglandin F2α; one minute pre-contact time. Here is the method: (§2) The compounds were tested for prostaglandin-like and for prostaglandin antagonist activity on the isolated perfused gerbil colon preparation (smooth muscle). This has been shown by J. R. Weeks, J. R. Schultz and W. E. Brown, (1968), J. App. Physiol, 25, 783, to have greater precision and sensitivity than other preparations. A 15 mm portion of the descending colon is suspended in an organ bath and perfused with De Jalon's saline at 32° C. Compounds were given in a three minute cycle with a 45 second contact time and a 15 second washout time. Antagonist compounds were given with a one minute pre-contact time.
Antagonist activity was determined by measuring the percentage reduction of the contraction to two standard doses of prostaglandin F2α which gave responses between 20% and 80% of maximum response.

Assay [7] has as its system 5-hydroxy-tryptamine-induced bronchoconstriction. Nature of the assay: inhibition of 5-hydroxytryptamine-induced bronchoconstriction (Konsett-Rossler preparation). The format is in vivo, guinea pig. As to conditions: Cavia porcellus; intravenous, 2 minutes prior to 5-hydroxytryptamine dose. The procedure: a. The compounds were examined for their ability to inhibit 5-hydroxy-tryptamine-induced bronchoconstriction in the anaesthetised, artifically respired guinea pig (Konsett-Rossler preparation).
H. Konsett and R. Rossler, (1940), Naunyn-Schneidebergs Arch. Exp. Path. Pharmak., 195, 71.
After preparation of the guinea pig, a dose of 5-hydroxytryptamine producing an adequate response was determined by dosing, i.v., every 6 minutes. This dose was usually 10 μg. After a standard response was obtained, compounds were given intra-venously 2 minutes prior to the next standard dose and dosing of 5-hydroxytryptamine was continued every 6 minutes until the response returned to control values.

The test system of the next assay is gerbil colon. The assay can be described thus: prostaglandin-like activity on the isolated perfused gerbil colon. As to conditions: De Jalon's saline, 32° C. Here is the method: as §2
Prostaglandin-like activity was determined using the method of H. O. Schlid, (1942), J. Physiol., 101, 115, which is a standard 4×4 latin square assay. Some of the compounds stimulated the gerbil colon to contract which is a prostaglandin-like effect, and the results are shown in Table 15.

The test system of assay [8] is histamine-induced asphyxic collapse. The assay can be described thus: protection against aerosol administered, histamine-induced asphyxic collapse. It is filed as in vivo, guinea pig. An excerpt:
b. The compounds were examined for their ability to protect against aerosol administered, histamine-induced asphyxic collapse in guinea pigs.
M. A. Wasserman and R. L. Griffen, (1975), Am. Rev. Resp. Dis., 111, 946.

In another assay the test system is arterial blood pressure. The assay can be described thus: effect on arterial blood pressure in the anaesthetised, normotensive rat. The format is in vivo. The following applies: intravenous, dose range 0.001 → 1.0 mg/kg. Here is the method:
a. The effect of the compounds on arterial blood pressure was determined in the anaesthetised, normotensive rat. The rat preparation was similar to that desribed in "Pharmacological experiments on intact preparations", E. and S. Livingstone, Edinburgh and London, 1970, p. 63.
The active compounds were predominantly depressor agents in the normotensive rat.

Take `CCCCCCCCN1CCCC(O)C1CCCCCCC` (stereo not shown) [Compound 112, 2-n-heptyl-3-hydroxy-1-n-octyl-piperidine]: the vascular resistance entry in assay [1] is reported as “decreased vascular resistance”. Besides, the “total peripheral resistance (TPR)” value in [2] was “decreased total peripheral resistance”. For the same compound, in the assay with antifertility activity, the antifertility activity entry is given as “active”. Also, at 100 µM the inhibition in assay [3] was 77%.
The compound `CCCCCC(C)C(C)(O)CCN1C(=O)CCC(=O)C1CCCCCCC(=O)OCC` (stereo not shown) [Compound 60] had an ED50 in assay [4] of 1 mg/kg. Also, in [5], the IC50 was 11 µM.
With `CCCCCC(CCN1C(=O)CC(O)C1CCCCCCC(=O)OCC)OCc1ccccc1` (stereo not shown) [Compound 81], the IC50 in [6] amounted to 0.17 µg/mL (≈ 0.357 µM).
`CCCCCCCC(C)(O)CCN1C(=O)CCC(=O)C1CCCCCCC(=O)OCC` (stereo not shown) [Compound 57, 2-(6'-Ethoxycarbonyl-n-hexyl)-1-(3"-hydroxy-3"-methyl-n-decyl)-piperidin-3,6-dione] had a median effective dose (ED50) in assay [7] of 0.253 mg/kg.
On to `CCOC(=O)CCCCCCC1C(=O)CCC(=O)N1CCCO` (stereo not shown) [Compound 74], for which the Concentration/ml. for contractions in the assay with gerbil colon is 4 to 8 µg/mL.
Same read-out and setting: next, `CCCCCC(CCN1CCC(O)C1CCCCCCCO)OCc1ccccc1` (stereo not shown) [Compound 101]: 0.04 to 0.10 µg/mL.
Regarding `CCCCCCCC(C)(O)CCN1C(=O)CC(=O)C1CCCCCCC(=O)OCC` (stereo not shown) [Compound 64, 2-(6'-Ethoxycarbonyl-n-hexyl)-1-(3"-hydroxy-3"-methyl-n-decyl)-pyrrolidin-3,5-dione], the “protecting against histamine challenge” value in assay [8] was “very effective”. In addition, it took a dose of 0.011 mg/kg to reach the 50% effect level in assay [7] (ED50). Also, the concentration for half-maximal inhibition (IC50) in [5] amounted to 9 µM.
Regarding `CCCCCCC(O)CCN1CCC(O)C1CCCCCCCO` (stereo not shown) [Compound 108], the antifertility activity entry with antifertility activity was “active”.
`OCCCCCCCC1C(O)CCCN1CCCOCc1ccccc1` (stereo not shown) [Compound 103] returned an IC50 in assay [6] of 0.35 µg/mL (≈ 0.963 µM).
On the same count and under the same terms, as for `CCCCCCC(O)CCN1C(=O)CC(O)C1CCCCCCC(=O)OCC` (stereo not shown) [Compound 98], the figure is 2.15 µg/mL (≈ 5.38 µM).
With `CCCCCC(O)CCN1CCCC(O)C1CCCCCCCO` (stereo not shown) [Compound 100], the Concentration/ml. for contractions in the assay on gerbil colon is 0.01 to 0.02 µg/mL.
In [6], `CCCCCC(CCN1C(=O)CCC(O)C1CCCCCCC(=O)OCC)OCc1ccccc1` (stereo not shown) [Compound 79] had an IC50 of 0.76 µg/mL (≈ 1.55 µM).
`CCCCCCC(C)(O)CCN1C(=O)CCC(=O)C1CCCCCCC(=O)OCC` (stereo not shown) [Compound 56] gave an IC50 in [5] of 51 µM.
Take `CCCCCCCCN1C(=O)CCC(O)C1CCCCCCC` (stereo not shown) [Compound 99, 2-n-Heptyl-3-hydroxy-1-n-octyl-piperidin-6-one]: it took 1.55 µg/mL (≈ 4.76 µM) to reach half-maximal inhibition in assay [6] (IC50).
Regarding `CCOC(=O)CCCCCCC1C(O)CCC(=O)N1CCCOCc1ccccc1` (stereo not shown) [Compound 80], the IC50 in [6] was 3.1 µg/mL (≈ 7.39 µM).
`CCCCCC(O)CCN1C(=O)CC(=O)C1CCCCCCC(=O)OCC` (stereo not shown) [Compound 75, 2-(6'-ethoxycarbonyl-n-hexyl)-1-(3"-hydroxy-n-octyl)-pyrrolidin-3,5-dione] had a Concentration/ml. for contractions in the assay with gerbil colon of 0.2 to 0.5 µg/mL. The compound also displayed an inhibition at 100 µM in assay [3] of 61%.
`CCCCCCC(O)(CC)CCN1C(=O)CC(=O)C1CCCCCCC(=O)OCC` (stereo not shown) [Compound 68, 2-(6'-Ethoxycarbonyl-n-hexyl)-1-(3"-hydroxy-3"-ethyl-n-nonyl)-pyrrolidin-3,5-dione] displayed a half-maximal inhibitory concentration (IC50) in assay [5] of 4 µM. This lies in the single-digit micromolar range.
In the case of `CCCCCC(C)(O)CCN1C(=O)CC(=O)C1CCCCCCC(=O)OCC` (stereo not shown) [Compound 62, 2-(6'-Ethoxycarbonyl-n-hexyl)-1-(3"-hydroxy-3"-methyl-n-octyl)-pyrrolidin-3,5-dione], in the assay on arterial blood pressure, the “% Depression at 1 mg/kg” value is 70%. In addition, the 50% effective dose (ED50) worked out at 0.72 mg/kg in assay [4] and 0.088 mg/kg in assay [7]. This compound gave a 50% inhibitory concentration (IC50) in assay [5] of 20 µM.
`CCCCCC(O)CCN1CCC(O)C1CCCCCCCO` (stereo not shown) [Compound 102] showed a Concentration/ml. for contractions in the assay on gerbil colon of 0.04 to 0.10 µg/mL. The inhibition at 100 µM in assay [3] was 71%.
Consider `CCCCCC(O)CCN1C(=O)CC(O)C1CCCCCCC(=O)OCC` (stereo not shown) [Compound 76, 2-(6'-ethoxycarbonyl-n-hexyl)-3-hydroxy-1-(3"-hydroxy-n-octyl)-pyrrolidin5-one], for which half-maximal inhibition in assay [5] (IC50) was put at 147 µM. The same compound displayed an inhibition at 100 µM in [3] of 79%.
With `CCCCCCC(O)CCN1C(=O)CCC(=O)C1CCCCCCC(=O)OCC` (stereo not shown) [Compound 78], in the assay on arterial blood pressure, the “% Depression at 1 mg/kg” value was found to be 30%. In assay [3], at 100 µM the inhibition was 65%.
The like results for `CCCCCCC(O)CCN1CCCC(O)C1CCCCCCCO` (stereo not shown) [Compound 105] were, in that order, 20% and 78%.
With `CCCCCCC(O)CCN1C(=O)CC(=O)C1CCCCCCC(=O)OCC` (stereo not shown) [Compound 77, 2-(6'-ethoxycarbonyl-n-hexyl)-1-(3"-hydroxyn-nonyl)-pyrrolidin-3,5-dione], the “% Depression at 1 mg/kg” value in the assay with arterial blood pressure is recorded as 30%. The ED50 in assay [4] stood at 2.6 mg/kg; in assay [7], 0.38 mg/kg. The same compound gave an IC50 in [5] of 5.4 µM.
The compound `CCCCCCC(C)(O)CCN1C(=O)CC(O)C1CCCCCCC(=O)OCC` (stereo not shown) [Compound 86] yielded a 50% effective dose (ED50) in [7] of 0.505 mg/kg. In [5], this compound yielded an IC50 of 55 µM.
Compound `CCCCCC(CCN1CCCC(O)C1CCCCCCCO)OCc1ccccc1` (stereo not shown) [Compound 104, 1-(3'-Benzyloxy-n-octyl)-3-hydroxy-2-(7"-hydroxy-n-heptyl)piperidine] showed an IC50 in assay [6] of 0.11 µg/mL (≈ 0.254 µM).
